Publication PMC2801547 (Journal of medicinal chemistry, 2009)

Assays:
several tumor cell lines = settings: cited from earlier work
[1] = cited from earlier work
[2] = tested on: panel of human cancer cell lines; settings: read-out: IC50 in all cell lines tested; all tumor lines examined; cited from earlier work
[3] = tested on: WiDr colorectal adenocarcinoma cells; experiment: cells; settings: Homo sapiens, 72 h
[4] = tested on: pTN24 dual-reporter splicing construct in 293T cells; experiment: Dual-reporter cell-based splicing assay; settings: 5 hours treatment
[5] = tested on: normal human foreskin fibroblasts (HFF); experiment: cells; settings: Fibroblast, 72 h
[6] = NOD/SCID mice, 5-50 mg/kg daily for five days, IV and IP, day 5
[7] = tested on: JeKo-1 mantle cell lymphoma tumors; settings: JeKo-1 tumor-bearing mice, Supplemental Figure S2

Compound: CC(=O)O[C@@H](C)/C=C\C(=O)N[C@@H]1C[C@H](C)[C@H](C/C=C(C)/C=C/[C@H]2O[C@](C)(O)C[C@@]3(CO3)[C@@H]2O)O[C@@H]1C [compound 1]
- cytotoxicity IC50s (several tumor cell lines; several tumor cell lines): low nanomolar range
- GI50s (several tumor cell lines; several tumor lines): single-digit nanomolar range

Compound: CC[C@H](O)[C@@H](C)[C@H]1O[C@@H]1C[C@@](C)(O)/C=C/C=C(\C)[C@H]1OC(=O)C[C@H](O)CC[C@@](C)(O)[C@@H](OC(=O)N2CCN(C3CCCCCC3)CC2)/C=C/[C@@H]1C [compound 2]
- activity relative to pladienolide B [1]: four-fold less active than pladienolide B

Compound: CC(=O)O[C@@H](C)/C=C\C(=O)N[C@H]1CC[C@@H](C/C=C(C)/C=C/[C@@H]2C[C@]3(CO3)CC(C)(C)O2)CC1 [compound 3a]
- IC50 [2]: < 5 µM
- IC50 [3]: 2 µM

Compound: CC(/C=C/[C@@H]1C[C@]2(CO2)CC(C)(C)O1)=C\C[C@H]1CC[C@@H](NC(=O)/C=C\[C@H](C)O)CC1 [compound 4]
- effect on splicing (ratio of luciferase to β-galactosidase activity) [4]: altered splicing only very slightly at the highest concentration tested

Compound: CC(/C=C/[C@@H]1C[C@]2(CO2)CC(C)(C)O1)=C\C[C@H]1CC[C@@H](NC(=O)/C=C\[C@H](C)OC(=O)C(C)C)CC1 [compound 5, (S,Z)-5-((1R,4R)-4-((2E,4E)-5-((3R,5S)-7,7-dimethyl-1,6-dioxaspiro[2.5]octan-5-yl)-3-methylpenta-2,4-dienyl)cyclohexylamino)-5-oxopent-3-en-2-yl isobutyrate]
- IC50 [5]: > 10 µM
- blood cell counts (CBC) versus vehicle-only mice [6]: No significant differences in blood cell counts

Compound: CC(/C=C/[C@@H]1C[C@]2(CO2)CC(C)(C)O1)=C\C[C@H]1OC[C@@H](NC(=O)/C=C\[C@H](C)OC(=O)C(C)C)CO1 [compound 26, (S,Z)-5-((2R,5R)-2-((2E,4E)-5-((3R,5S)-7,7-dimethyl-1,6-dioxaspiro[2.5]octan-5-yl)-3-methylpenta-2,4-dienyl)-1,3-dioxan-5-ylamino)-5-oxopent-3-en-2-yl isobutyrate]
- effect on splicing (ratio of luciferase to β-galactosidase activity) [4]: selectively inhibit splicing
- in vivo anti-cancer activity [7]: robust anti-cancer activity that was comparable to compound 5

Compound: CC(=O)N[C@H]1CO[C@@H](C/C=C(C)/C=C/[C@@H]2C[C@]3(CO3)CC(C)(C)O2)OC1 [compound 27, N-((2s,5R)-2-((2E,4E)-5-((3R,5S)-7,7-dimethyl-1,6-dioxaspiro[2.5]octan-5-yl) -3-methylpenta-2,4-dienyl)-1,3-dioxan-5-yl)acetamide]
- effect on splicing (ratio of luciferase to β-galactosidase activity) [4]: had no effect
